Active and inactive are the calls of the source. The calls are words filed in the database; no cut-off is given here.
What was measured:
[1] = molecular target: 5-hydroxytryptamine receptor 6 (Homo sapiens, UniProt P50406); test: Displacement of [3H]-LSD from human 5HT6 receptor expressed in CHO cells assessed as inhibition constant incubated for 120 mins by liquid scintillation counting analysis; type: cell-based
[2] = Cmax in Sprague-Dawley rat at 2 mg/kg, iv measured for 24 hrs by LC-MS/MS analysis; type: ADME, organism-based; set-up: time 24 hrs, dose 2 mg/kg, route iv; settings: in vivo
[3] = AUC (0 to t) in Sprague-Dawley rat at 2 mg/kg, iv measured for 24 hrs by LC-MS/MS analysis; type: ADME, organism-based; set-up: dose 2 mg/kg, time 24 hrs, route iv; settings: in vivo; for AUC(0-t) at 24 h: Sprague-Dawley
[4] = Half life in Sprague-Dawley rat at 2 mg/kg, iv measured for 24 hrs by LC-MS/MS analysis; type: ADME, organism-based; settings: in vivo
[5] = Volume of distribution at steady state in Sprague-Dawley rat at 2 mg/kg, iv measured for 24 hrs by LC-MS/MS analysis; type: ADME, organism-based; settings: in vivo, read-out: Vdss
[6] = Clearance in Sprague-Dawley rat at 2 mg/kg, iv measured for 24 hrs by LC-MS/MS analysis; type: ADME, organism-based; settings: in vivo
[7] = Cmax in Sprague-Dawley rat at 5 mg/kg, po measured for 24 hrs by LC-MS/MS analysis; type: ADME, organism-based; set-up: time 24 hrs, dose 5 mg/kg, route po; settings: in vivo
[8] = AUC (0 to t) in Sprague-Dawley rat at 5 mg/kg, po measured for 24 hrs by LC-MS/MS analysis; type: ADME, organism-based; set-up: time 24 hrs, dose 5 mg/kg, route po; settings: in vivo; for AUC(0-t) at 24 h: Sprague-Dawley
[9] = Oral bioavailability in Sprague-Dawley rat at 5 mg/kg measured for 24 hrs by LC-MS/MS analysis; type: ADME, organism-based; settings: in vivo; for bioavailability: Sprague-Dawley
[10] = Half life in Sprague-Dawley rat at 5 mg/kg, po measured for 24 hrs by LC-MS/MS analysis; type: ADME, organism-based; settings: in vivo
[11] = Drug concentration in Sprague-Dawley rat plasma at 1 mg/kg, iv measured after 15 mins by LC-MS/MS analysis; type: ADME, organism-based
[12] = Drug concentration in Sprague-Dawley rat plasma at 1 mg/kg, iv measured after 45 mins by LC-MS/MS analysis; type: ADME, organism-based
[13] = Drug concentration in Sprague-Dawley rat plasma at 1 mg/kg, iv measured after 75 mins by LC-MS/MS analysis; type: ADME, organism-based
[14] = Drug concentration in Sprague-Dawley rat brain at 1 mg/kg, iv measured after 15 mins by LC-MS/MS analysis; type: ADME, organism-based; settings: read-out: Ct
[15] = Drug concentration in Sprague-Dawley rat brain at 1 mg/kg, iv measured after 45 mins by LC-MS/MS analysis; type: ADME, organism-based; settings: read-out: Ct
[16] = Drug concentration in Sprague-Dawley rat brain at 1 mg/kg, iv measured after 75 mins by LC-MS/MS analysis; type: ADME, organism-based; settings: read-out: Ct
[17] = Ratio of drug concentration in Sprague-Dawley rat brain to plasma at 1 mg/kg, iv measured after 15 mins by LC-MS/MS analysis; type: ADME, organism-based; settings: brain and plasma, read-out: BPR
[18] = Ratio of drug concentration in Sprague-Dawley rat brain to plasma at 1 mg/kg, iv measured after 45 mins by LC-MS/MS analysis; type: ADME, organism-based; settings: brain and plasma, read-out: BPR
[19] = Ratio of drug concentration in Sprague-Dawley rat brain to plasma at 1 mg/kg, iv measured after 75 mins by LC-MS/MS analysis; type: ADME, organism-based; settings: brain and plasma, read-out: BPR
Rattus norvegicus = test: Cognitive enhancing effect in Wistar rat model of scopolamine-induced cognitive impairment assessed as rescue of loss of preference for new object at 3 to 5 mg/kg, ip administered as single dose for 30 mins followed by scopolamine addition and measured after 30 mins by Novel object recognition assay; type: functional, organism-based; settings: dose 3-5 mg/kg, time 1.0 hrs
Mus musculus = test: Cognitive enhancing effect in C57BL/6J mouse model of scopolamine-induced memory deficit assessed as reduction in incubation period of mouse entering into dark compartment at 10 mg/kg, ip pretreated for 30 mins followed by scopolamine addition and measured after 30 mins by step-through passive avoidance test; type: functional, organism-based; settings: time 1.0 hrs
[20] = In vivo antagonist activity at 5-HT6R in Sprague-Dawley rat assessed as increase in intracerebral hippocampal acetylcholine level at 1.5 mg/kg, ip pretreated for 30 mins followed by donepezil addition and measured every 20 mins for 360 mins by LC-MS/MS analysis relative to control; type: functional; set-up: scale not given: the % may be the effect or the level left; settings: time 390 min, 6.5 h
[21] = In vivo antagonist activity at 5-HT6R in Sprague-Dawley rat assessed as increase in intracerebral hippocampal acetylcholine level at 5 mg/kg, ip pretreated for 30 mins followed by donepezil addition and measured every 20 mins for 360 mins by LC-MS/MS analysis relative to control; type: functional; set-up: scale not given: the % may be the effect or the level left; settings: time 390 min, 6.5 h

Sequence of 5-hydroxytryptamine receptor 6 (P50406 whole entry): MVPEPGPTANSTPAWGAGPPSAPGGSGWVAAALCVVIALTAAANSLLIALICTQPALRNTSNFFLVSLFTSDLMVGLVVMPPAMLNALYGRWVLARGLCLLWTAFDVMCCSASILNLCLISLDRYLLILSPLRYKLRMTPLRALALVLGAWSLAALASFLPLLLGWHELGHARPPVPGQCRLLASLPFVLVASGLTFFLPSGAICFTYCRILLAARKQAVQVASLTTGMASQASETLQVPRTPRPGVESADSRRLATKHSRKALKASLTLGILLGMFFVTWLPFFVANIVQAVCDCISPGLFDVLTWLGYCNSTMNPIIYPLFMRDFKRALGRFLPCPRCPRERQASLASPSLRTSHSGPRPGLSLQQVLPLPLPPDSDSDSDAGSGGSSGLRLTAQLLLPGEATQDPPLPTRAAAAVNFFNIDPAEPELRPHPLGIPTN

| Compound | Cmax [2] [ng/mL] | half-life [4] [h] | Vd [5] [L/kg] | clearance [6] [mL/min/kg] | Cmax [7] [ng/mL] | AUC(0-t) at 24 h [3] [ng·h/mL] | AUC(0-t) at 24 h [8] [ng·h/mL] | half-life [10] [h] | bioavailability [9] [%] | concentration at 0.25 h [11] [ng/mL] | concentration at 0.75 h [12] [ng/mL] | concentration at 1.25 h [13] [ng/mL] | concentration at 0.25 h [14] [ng/g] | concentration at 0.75 h [15] [ng/g] | concentration at 1.25 h [16] [ng/g] | Kp at 0.25 h [17] | Kp at 0.75 h [18] | Kp at 1.25 h [19] | other results |
| --- | --- | --- | --- | --- | --- | --- | --- | --- | --- | --- | --- | --- | --- | --- | --- | --- | --- | --- | --- |
| Cc1cn(S(=O)(=O)c2cccc(F)c2)c2cccc(N3CCNCC3)c12 | 159 | 1.4 | 6.7 | 63 | 3.61 | – | – | – | – | – | – | – | – | – | – | – | – | – | Ki [1]: 0.51 nM; AUCt ([3]; 24 h): 254 ng·h/mL; AUCt ([8]; 24 h): 9.37 ng·h/mL; F ([9]; po, 5 mg/kg, 24 h): 5.95% |
| O=S(=O)(c1cccc(F)c1)n1cc(C(F)F)c2c(N3CCNCC3)cccc21 | 140 | 2.28 | 18.8 | 93.4 | 51.8 | 323 | 267 | 4.33 | 34.4 | 58.1 | 30.3 | 20.8 | 279 | 187 | 128 | 4.81 | 6.17 | 6.16 | Activity (Rattus norvegicus): Active; Activity (Mus musculus): Active; Activity [20]: 235%; Activity [21]: 287% |
| O=S(=O)(c1ccccc1F)n1cc(C(F)F)c2c(N3CCNCC3)cccc21 | 112 | 2.54 | 24 | 108 | 33.6 | 272 | 132 | 1.98 | 18.5 | – | – | – | – | – | – | – | – | – | – |

Further lines, with some results ahead:

| Cmax [2] [ng/mL] | half-life [4] [h] | Vd [5] [L/kg] | clearance [6] [mL/min/kg] | Cmax [7] [ng/mL] | AUC(0-t) at 24 h [3] [ng·h/mL] | AUC(0-t) at 24 h [8] [ng·h/mL] | half-life [10] [h] | bioavailability [9] [%] | concentration at 0.25 h [11] [ng/mL] | concentration at 0.75 h [12] [ng/mL] | concentration at 1.25 h [13] [ng/mL] | concentration at 0.25 h [14] [ng/g] | concentration at 0.75 h [15] [ng/g] | concentration at 1.25 h [16] [ng/g] | Kp at 0.25 h [17] | Kp at 0.75 h [18] | Kp at 1.25 h [19] | Compound | other results |
| --- | --- | --- | --- | --- | --- | --- | --- | --- | --- | --- | --- | --- | --- | --- | --- | --- | --- | --- | --- |
| 200 | 4.46 | 26.6 | 82.8 | 44.1 | 306 | 348 | 4.39 | 37 | 434 | 127 | 69.6 | 406 | 302 | 224 | 0.94 | 2.37 | 3.21 | O=S(=O)(c1cccc(Cl)c1)n1cc(C(F)F)c2c(N3CCNCC3)cccc21 | – |
| 120 | 2.55 | 25.8 | 123 | 33.6 | 242 | 162 | 3.01 | 29.5 | – | – | – | – | – | – | – | – | – | O=S(=O)(c1ccccc1Cl)n1cc(C(F)F)c2c(N3CCNCC3)cccc21 | – |

From ChEMBL document CHEMBL5107995, “Novel difluoromethylated 1-(phenylsulfonyl)-4-(piperazin-1-yl)-1H-indole derivatives as potent 5-HT6 receptor antagonist with AMDE-improving properties: Design, synthesis, and biological evaluation” (Bioorg Med Chem, 2022)
